In this assay the test system is T5 (DNA, single strand) TTTTT. In words: direct excitation Eu. Particulars: 50 mM NaNO3; 20 mM HEPES pH 7.0; 25 µM complex; 5–50 µM nucleic acid.

`NC(=O)CN1CCN(CC(N)=O)CCN(Cc2ccc(CN3CCN(CC(N)=O)CCN(CC(N)=O)CCN(CC(N)=O)CC3)cc2)CCN(CC(N)=O)CC1.O.O.O.O.[Eu+3].[Eu+3]`: the binding entry is “weak”.

For the origin of these results see publication PMC2717892 (2009).
